Consider 34 compounds from patent US20040156869A1, “2-substituted quinazolin-4-ylamine analogues” (Neurogen Corporation, priority 2002, published 2004).

The target in the experiment is human capsaicin receptor (VR1) (Homo sapiens, UniProt Q8NER1). Description: Capsaicin receptor binding assay ([3H]RTX competition, VR1-transfected HEK293 membranes).
Chain of human capsaicin receptor (VR1) (Q8NER1 whole entry): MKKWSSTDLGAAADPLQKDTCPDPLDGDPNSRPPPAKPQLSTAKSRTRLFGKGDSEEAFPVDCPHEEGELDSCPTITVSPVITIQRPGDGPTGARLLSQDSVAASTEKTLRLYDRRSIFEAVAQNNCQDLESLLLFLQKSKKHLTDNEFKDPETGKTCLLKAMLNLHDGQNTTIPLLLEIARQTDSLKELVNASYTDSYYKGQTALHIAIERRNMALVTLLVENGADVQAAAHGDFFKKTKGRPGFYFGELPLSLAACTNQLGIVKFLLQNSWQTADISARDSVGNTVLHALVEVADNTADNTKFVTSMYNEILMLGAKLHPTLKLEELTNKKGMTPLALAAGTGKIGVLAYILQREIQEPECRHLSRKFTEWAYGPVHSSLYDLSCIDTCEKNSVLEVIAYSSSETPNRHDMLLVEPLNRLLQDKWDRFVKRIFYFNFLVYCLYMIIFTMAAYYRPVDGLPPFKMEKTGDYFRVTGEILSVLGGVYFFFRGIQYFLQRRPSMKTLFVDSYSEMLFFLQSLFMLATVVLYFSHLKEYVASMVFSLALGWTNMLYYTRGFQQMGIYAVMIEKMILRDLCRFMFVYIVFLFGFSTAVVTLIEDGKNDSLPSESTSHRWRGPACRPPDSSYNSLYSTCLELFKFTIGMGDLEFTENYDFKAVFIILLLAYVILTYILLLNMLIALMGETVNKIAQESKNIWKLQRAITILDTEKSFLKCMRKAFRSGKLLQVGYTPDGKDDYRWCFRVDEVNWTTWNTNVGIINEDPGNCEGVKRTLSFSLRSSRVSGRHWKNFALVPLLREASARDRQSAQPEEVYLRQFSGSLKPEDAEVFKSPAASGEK
Compound `FC(F)(F)c1ccc(Nc2nc(COCc3cccnc3)nc3cc(-c4ncccc4C(F)(F)F)ccc23)cn1` [Compound 45, [2-(Pyridin-3-ylmethoxymethyl)-7-(3-trifluoromethyl-pyridin-2-yl)-quinazolin-4-yl]-(6-trifluoromethyl-pyridin-3-yl)-amine] displayed a Ki of less than 1 µM. `FC(F)(F)c1ccc(Nc2nc(COCc3ccncc3)nc3cc(-c4ncccc4C(F)(F)F)ccc23)cn1` [Compound 46, [2-(Pyridin-4-ylmethoxymethyl)-7-(3-trifluoromethyl-pyridin-2-yl)-quinazolin-4-yl]-(6-trifluoromethyl-pyridin-3-yl)-amine] gave a Ki of less than 1 µM. Regarding `COCCc1nc(Nc2ccc(C(C)(C)C)cc2)c2ccc(-c3ncccc3C(F)(F)F)cc2n1` [Compound 47, (4-tert-Butyl-phenyl)-[2-(2-methoxy-ethyl)-7-(3-trifluoromethyl-pyridin-2-yl)-quinazolin-4-yl]-amine], the inhibitory constant (Ki) was less than 1 µM. For the compound `COCCc1nc(Nc2ccc(C(C)C)cc2)c2ccc(-c3ncccc3C(F)(F)F)cc2n1` [Compound 48, (4-Isopropyl-phenyl)-[2-(2-methoxy-ethyl)-7-(3-trifluoromethyl-pyridin-2-yl)-quinazolin-4-yl]-amine], the Ki is less than 1 µM. In turn, `COCCc1nc(Nc2ccc(C(C)(C)C)nc2)c2ccc(-c3ncccc3C(F)(F)F)cc2n1` [Compound 49, (6-tert-Butyl-pyridin-3-yl)-[2-(2-methoxy-ethyl)-7-(3-trifluoromethyl-pyridin-2-yl)-quinazolin-4-yl]-amine] yielded an inhibition constant Ki of less than 1 µM. `COCc1nc(Nc2ccc(C(C)(C)C)cc2)c2ncc(-c3ncccc3C(F)(F)F)cc2n1` [Compound 50, (4-tert-Butyl-phenyl)-[2-methoxymethyl-7-(3-trifluoromethyl-pyridin-2-yl)-pyrido[3,2-d]pyrimidin-4-yl]-amine] displayed a Ki of less than 1 µM. For `COCc1nc(Nc2ccc(C(C)C)cc2)c2ncc(-c3ncccc3C(F)(F)F)cc2n1` [Compound 51, (4-Isopropyl-phenyl)-[2-methoxymethyl-7-(3-trifluoromethyl-pyridin-2-yl)-pyrido[3,2-d]pyrimidin-4-yl]-amine], the Ki was less than 1 µM. `CCc1ccc(Nc2nc(COC)nc3cc(-c4ncccc4C(F)(F)F)cnc23)cc1` [Compound 52, (4-Ethyl-phenyl)-[2-methoxymethyl-7-(3-trifluoromethyl-pyridin-2-yl)-pyrido[3,2-d]pyrimidin-4-yl]-amine]: the Ki was less than 1 µM. Consider `COCc1nc(Nc2ccc(C(F)(F)F)nc2)c2ncc(-c3ncccc3C(F)(F)F)cc2n1` [Compound 53, [2-Methoxymethyl-7-(3-trifluoromethyl-pyridin-2-yl)-pyrido[3,2-d]pyrimidin-4-yl]-(6-trifluoromethyl-pyridin-3-yl)-amine], for which the Ki was less than 1 µM. The result for `COCc1nc(Nc2ccc(C(C)=O)cc2)c2ncc(-c3ncccc3C(F)(F)F)cc2n1` [Compound 54, 1-{4-[2-Methoxymethyl-7-(3-trifluoromethyl-pyridin-2-yl)-pyrido[3,2-d]pyrimidin-4-ylamino]-phenyl}-ethanone] reads less than 1 µM; that for `COCc1nc(Nc2ccc(C#N)cc2)c2ncc(-c3ncccc3C(F)(F)F)cc2n1` [Compound 55, 4-[2-Methoxymethyl-7-(3-trifluoromethyl-pyridin-2-yl)-pyrido[3,2-d]pyrimidin-4-ylamino]-benzonitrile], less than 1 µM; that for `COCc1nc(Nc2ccc(C3CCCCC3)cc2)c2ncc(-c3ncccc3C(F)(F)F)cc2n1` [Compound 56, (4-Cyclohexyl-phenyl)-[2-methoxymethyl-7-(3-trifluoromethyl-pyridin-2-yl)-pyrido[3,2-d]pyrimidin-4-yl]-amine], less than 1 µM. As to `CCCC(=O)c1ccc(Nc2nc(COC)nc3cc(-c4ncccc4C(F)(F)F)cnc23)cc1` [Compound 57, 1-{4-[2-Methoxymethyl-7-(3-trifluoromethyl-pyridin-2-yl)-pyrido[3,2-d]pyrimidin-4-ylamino]-phenyl}-butan-1-one], the Ki is less than 1 µM. `COCc1nc(Nc2ccc(C(C)(C)COC)cc2)c2ncc(-c3ncccc3C(F)(F)F)cc2n1` [Compound 58, [4-(2-Methoxy-1,1-dimethyl-ethyl)-phenyl]-[2-methoxymethyl-7-(3-trifluoromethyl-pyridin-2-yl)-pyrido[3,2-d]pyrimidin-4-yl]-amine] gave a Ki of less than 1 µM. `COCc1nc(Nc2ccc(C(C)(C)C)cc2)c2ccc(-c3ncccc3Cl)nc2n1` [Compound 59, (4-tert-Butyl-phenyl)-[7-(3-chloro-pyridin-2-yl)-2-methoxymethyl-pyrido[2,3-d]pyrimidin-4-yl]-amine] gave a Ki of less than 1 µM. For the compound `COCc1nc(Nc2ccc(C(C)C)cc2)c2ccc(-c3ncccc3Cl)nc2n1` [Compound 60, [7-(3-Chloro-pyridin-2-yl)-2-methoxymethyl-pyrido[2,3-d]pyrimidin-4-yl]-(4-isopropyl-phenyl)-amine], the inhibition constant Ki was less than 1 µM. The compound `COCc1nc(Nc2ccc(C(C)(C)COC)cc2)c2ccc(-c3ncccc3Cl)nc2n1` [Compound 61, [7-(3-Chloro-pyridin-2-yl)-2-methoxymethyl-pyrido[2,3-d]pyrimidin-4-yl]-[4-(2-methoxy-1,1-dimethyl-ethyl)-phenyl]-amine] displayed a Ki of less than 1 µM.

On to `COCc1nc(Nc2ccc(C(C)(C)C#N)cc2)c2ccc(-c3ncccc3Cl)nc2n1` [Compound 62, 2-{4-[7-(3-Chloro-pyridin-2-yl)-2-methoxymethyl-pyrido[2,3-d]pyrimidin-4-ylamino]-phenyl}-2-methyl-propionitrile], for which the Ki is less than 1 µM. `CCC(C)c1ccc(Nc2nc(COC)nc3nc(-c4ncccc4Cl)ccc23)cc1` (stereo not shown) [Compound 63, (4-sec-Butyl-phenyl)-[7-(3-chloro-pyridin-2-yl)-2-methoxymethyl-pyrido[2,3-d]pyrimidin-4-yl]-amine] yielded a Ki of less than 1 µM. As to `COCc1nc(Nc2ccc(C(C)(C)C)cc2)c2ncc(-c3ncccc3Cl)cc2n1` [Compound 65, (4-tert-Butyl-phenyl)-[7-(3-chloro-pyridin-2-yl)-2-methoxymethyl-pyrido[3,2-d]pyrimidin-4-yl]-amine], the Ki is less than 1 µM.

`COCc1nc(Nc2ccc(C(C)C)cc2)c2ncc(-c3ncccc3Cl)cc2n1` [Compound 66, [7-(3-Chloro-pyridin-2-yl)-2-methoxymethyl-pyrido[3,2-d]pyrimidin-4-yl]-(4-isopropyl-phenyl)-amine] registered a Ki of less than 1 µM. The result for `COCc1nc(Nc2ccc(C(C)(C)C)nc2)c2ccc(-c3ncccc3Cl)cc2n1` [Compound 68, (6-tert-Butyl-pyridin-3-yl)-[7-(3-chloro-pyridin-2-yl)-2-methoxymethyl-quinazolin-4-yl]-amine] reads less than 1 µM; that for `COCc1nc(Nc2ccc(C(C)C)cc2)c2ccc(-c3ncccc3Cl)cc2n1` [Compound 69, [7-(3-Chloro-pyridin-2-yl)-2-methoxymethyl-quinazolin-4-yl]-(4-isopropyl-phenyl)-amine], less than 1 µM. Compound `COCc1nc(Nc2ccc(C(F)(F)F)cc2)c2ccc(-c3ncccc3Cl)cc2n1` [Compound 70, [7-(3-Chloro-pyridin-2-yl)-2-methoxymethyl-quinazolin-4-yl]-(4-trifluoromethyl-phenyl)-amine] came in with a Ki of less than 1 µM. In the case of `COCc1nc(Nc2ccc(C(C)(C)C)cc2)c2ccc(-c3ncccc3Cl)cc2n1` [Compound 71, (4-tert-Butyl-phenyl)-[7-(3-chloro-pyridin-2-yl)-2-methoxymethyl-quinazolin-4-yl]-amine], the inhibition constant Ki is less than 1 µM.

The compound `COCc1nc(Nc2ccc(C(C)C)cc2)c2ccc(-c3ncccc3C(F)(F)F)cc2n1` [Compound 72, (4-Isopropyl-phenyl)-[2-methoxymethyl-7-(3-trifluoromethyl-pyridin-2-yl)-quinazolin-4-yl]-amine] displayed a Ki of less than 1 µM.

In turn, `COCc1nc(Nc2ccc(C(C)(C)C)cc2)c2ccc(-c3ncccc3C(F)(F)F)cc2n1` [Compound 73, (4-tert-Butyl-phenyl)-[2-methoxymethyl-7-(3-trifluoromethyl-pyridin-2-yl)-quinazolin-4-yl]-amine] gave a Ki of less than 1 µM. Regarding `COCc1nc(Nc2ccc(C(C)(C)C)nc2)c2ccc(-c3ncccc3C(F)(F)F)cc2n1` [Compound 74, (6-tert-Butyl-pyridin-3-yl)-[2-methoxymethyl-7-(3-trifluoromethyl-pyridin-2-yl)-quinazolin-4-yl]-amine], the Ki is less than 1 µM. Compound `COCCOCc1nc(Nc2ccc(C(C)(C)C)cc2)c2ccc(-c3ncccc3Cl)nc2n1` [Compound 75, (4-tert-Butyl-phenyl)-[7-(3-chloro-pyridin-2-yl)-2-(2-methoxy-ethoxymethyl)-pyrido[2,3-d]pyrimidin-4-yl]-amine] came in with a Ki of less than 1 µM.

On to `COCCOCc1nc(Nc2ccc(C(F)(F)F)cc2)c2ccc(-c3ncccc3Cl)nc2n1` [Compound 76, [7-(3-Chloro-pyridin-2-yl)-2-(2-methoxy-ethoxymethyl)-pyrido[2,3-d]pyrimidin-4-yl]-(4-trifluoromethyl-phenyl)-amine], for which the Ki is less than 1 µM. On to `COCCOCc1nc(Nc2ccc(C(C)C)cc2)c2ccc(-c3ncccc3Cl)nc2n1` [Compound 77, [7-(3-Chloro-pyridin-2-yl)-2-(2-methoxy-ethoxymethyl)-pyrido[2,3-d]pyrimidin-4-yl]-(4-isopropyl-phenyl)-amine], for which the Ki is less than 1 µM. The result for `COCc1nc(Nc2ccc(C(C)C)cc2)c2ccc(-c3ncccc3C)cc2n1` [Compound 78, (4-Isopropyl-phenyl)-[2-methoxymethyl-7-(3-methyl-pyridin-2-yl)-quinazolin-4yl]-amine] reads less than 1 µM; that for `CCOCc1nc(Nc2ccc(C(C)(C)C)cc2)c2ccc(-c3ncccc3Cl)cc2n1` [Compound 79, (4-tert-Butyl-phenyl)-[7-(3-chloro-pyridin-2-yl)-2-ethoxymethyl-quinazolin-4-yl]-amine], less than 1 µM. `CCOCc1nc(Nc2ccc(C(C)C)cc2)c2ccc(-c3ncccc3Cl)cc2n1` [Compound 80, [7-(3-Chloro-pyridin-2-yl)-2-ethoxymethyl-quinazolin-4-yl]-(4-isopropyl-phenyl)-amine] had a Ki of less than 1 µM.
